Test results taken from patent US8859559B2, “Substituted pyrazines and their use in the treatment of disease” (Boehringer Ingelheim International GmbH, priority 2011, dated 2014).
pIC50: −log10 of the molar value.

What follows are compounds tested against T1, ENaC (Epithelial Sodium Channel) (Mus musculus, UniProt Q61180+Q9WU38+Q9WU39) (assay: Ussing chamber: inhibition of amiloride sensitive short circuit current (I_sc) in M-1 cells). Conditions: mouse kidney M-1 cells.
T1 construct: Mouse kidney M-1 cells were cultivated in DMEM; endogenous in cells; host or cells: Mouse kidney M-1 cells (dexamethasone-treated, on transwell filters)
T1 sequence (Q61180 1-699): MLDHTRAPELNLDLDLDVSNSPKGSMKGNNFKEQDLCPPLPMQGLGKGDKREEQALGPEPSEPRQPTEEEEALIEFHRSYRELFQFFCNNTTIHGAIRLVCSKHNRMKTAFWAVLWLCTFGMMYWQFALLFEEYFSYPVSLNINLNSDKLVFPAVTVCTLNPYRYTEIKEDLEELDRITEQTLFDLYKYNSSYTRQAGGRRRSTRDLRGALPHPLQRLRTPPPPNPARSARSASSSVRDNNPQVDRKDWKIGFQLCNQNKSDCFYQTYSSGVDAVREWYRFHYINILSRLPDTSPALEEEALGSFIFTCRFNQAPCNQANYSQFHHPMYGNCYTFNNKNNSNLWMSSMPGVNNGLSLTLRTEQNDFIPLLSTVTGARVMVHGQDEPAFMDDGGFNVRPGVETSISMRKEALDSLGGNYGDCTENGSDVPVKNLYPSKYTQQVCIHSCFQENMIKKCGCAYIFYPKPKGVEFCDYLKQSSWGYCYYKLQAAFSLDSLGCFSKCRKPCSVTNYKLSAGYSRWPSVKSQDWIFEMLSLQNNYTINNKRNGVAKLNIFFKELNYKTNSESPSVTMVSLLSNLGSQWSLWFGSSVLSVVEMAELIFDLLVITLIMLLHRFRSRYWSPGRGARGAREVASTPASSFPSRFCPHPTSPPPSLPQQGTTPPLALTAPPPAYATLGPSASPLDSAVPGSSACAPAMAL
T1 sequence (Q9WU38 1-638): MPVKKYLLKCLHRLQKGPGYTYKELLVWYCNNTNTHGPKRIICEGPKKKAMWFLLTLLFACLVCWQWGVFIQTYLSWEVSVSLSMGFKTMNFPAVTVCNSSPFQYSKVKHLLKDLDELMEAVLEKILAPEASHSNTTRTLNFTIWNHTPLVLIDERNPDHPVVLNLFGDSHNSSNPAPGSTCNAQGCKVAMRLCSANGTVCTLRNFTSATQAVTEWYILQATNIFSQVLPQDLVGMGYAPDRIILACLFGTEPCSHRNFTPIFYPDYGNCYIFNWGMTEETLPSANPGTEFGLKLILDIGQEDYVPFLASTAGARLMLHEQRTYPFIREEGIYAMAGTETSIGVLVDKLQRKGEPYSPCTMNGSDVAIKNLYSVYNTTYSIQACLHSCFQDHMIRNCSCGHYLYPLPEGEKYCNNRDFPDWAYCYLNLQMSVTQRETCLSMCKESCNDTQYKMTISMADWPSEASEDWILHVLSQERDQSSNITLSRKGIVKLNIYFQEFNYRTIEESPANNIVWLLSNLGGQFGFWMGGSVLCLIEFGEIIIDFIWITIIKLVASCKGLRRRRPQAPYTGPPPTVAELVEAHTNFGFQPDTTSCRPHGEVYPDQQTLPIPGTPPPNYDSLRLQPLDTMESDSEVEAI
T1 sequence (Q9WU39 1-655): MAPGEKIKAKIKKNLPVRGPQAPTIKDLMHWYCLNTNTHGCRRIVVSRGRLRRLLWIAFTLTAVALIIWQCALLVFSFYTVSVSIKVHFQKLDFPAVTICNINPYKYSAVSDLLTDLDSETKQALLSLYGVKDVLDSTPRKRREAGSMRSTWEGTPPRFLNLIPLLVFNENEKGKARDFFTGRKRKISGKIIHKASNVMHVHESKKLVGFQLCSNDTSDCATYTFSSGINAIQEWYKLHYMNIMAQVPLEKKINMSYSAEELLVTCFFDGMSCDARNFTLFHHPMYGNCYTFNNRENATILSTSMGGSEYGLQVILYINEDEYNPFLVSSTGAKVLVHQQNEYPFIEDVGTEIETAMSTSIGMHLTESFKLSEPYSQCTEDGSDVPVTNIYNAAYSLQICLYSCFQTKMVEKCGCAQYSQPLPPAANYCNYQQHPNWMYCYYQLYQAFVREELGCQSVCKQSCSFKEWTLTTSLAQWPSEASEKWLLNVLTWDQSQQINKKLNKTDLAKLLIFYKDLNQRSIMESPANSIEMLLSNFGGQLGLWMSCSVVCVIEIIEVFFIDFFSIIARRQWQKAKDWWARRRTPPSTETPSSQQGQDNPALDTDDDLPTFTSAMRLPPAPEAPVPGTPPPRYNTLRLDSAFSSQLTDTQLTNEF
Format: cell-based
Method: Mouse kidney M-1 cells were cultivated in DMEM containing 5% FCS and 5 μM dexamethasone for 10 to 12 days on polyester transwell filters. Filters were inserted into a teflon-coated well-plate which fit into the in-house ussing chamber system. Prior to measurement the medium of M-1 cells was replaced with Caco-2 transport buffer (Invitrogen, Germany). During measurements, the Ussing chamber temperature was kept at 37° C. Short circuit currents (I_sc) were measured in the voltage-clamp mode using an in-house built amplifier (Boehringer Ingelheim, Biberach) with the software package Lab View for data acquisition and analysis. The transepithelial electrical resistance (TEER) was determined by the application of voltage steps of ±5 mV every 5 sec. Compounds were administered at a final concentration of 3 μM or at increasing concentrations (1-3-10 μM) to the apical solution. At the end of each experiment the amiloride sensitive I_SC was measured by adding 3 μM amiloride to the apical compartment. Results are expressed as inhibition in percent of the amiloride effect or as IC50. With the example compounds given above, the following IC50 values were determined in the Ussing Chamber assay: […]

Row | Structure (SMILES) | pIC50
1 | COC(=O)COc1ccc(CN2CC[C@H](NC(N)=NC(=O)c3nc(Cl)c(N)nc3N)C2)cc1 [Example 1.42] | 7.23
2 | NC(=NC(=O)c1nc(Cl)c(N)nc1N)NC1CCN(Cc2ccc(CCn3cc(CCC(=O)N4CCOCC4)nn3)cc2)CC1 [Example 3.43] | 7.82
3 | COC(=O)COc1ccc(CN2CC[C@@H](NC(N)=NC(=O)c3nc(Cl)c(N)nc3N)C2)cc1 [Example 1.46] | 7.14
4 | N/C(=N\C(=O)c1nc(Cl)c(N)nc1N)NC1CCN(Cc2ccc(OCc3cn(CCOCCOCCOCCOCCOCCO)nn3)cc2)CC1 [Example 5.1] | 7.38
5 | NC(=NC(=O)c1nc(Cl)c(N)nc1N)NC1CC2CCC(C1)N2Cc1ccccc1 (single isomer, unassigned) [Example 1.28] | 7.80
6 | NC(=NC(=O)c1nc(Cl)c(N)nc1N)NC1CCN(Cc2ccc(OCC(=O)O)c(OCC(=O)O)c2)CC1 [Example 8.5] | 6.82
7 | COC(=O)C(c1ccccc1)N1CCC(NC(N)=NC(=O)c2nc(Cl)c(N)nc2N)CC1 (stereo not shown) [Example 1.37] | 7.77
8 | NC(=NC(=O)c1nc(Cl)c(N)nc1N)NC1CCN(Cc2ccc(OCc3cn(CCOCCOCCO)nn3)cc2)CC1 [Example 3.24] | 7.60
9 | N/C(=N\C(=O)c1nc(Cl)c(N)nc1N)NC1CCN(Cc2ccc(C(=O)NCCCS(=O)(=O)O)cc2)CC1 [Example 2.1] | 7.92
10 | CC(=O)N1CCN(C(=O)CCc2cn(CCc3ccc(CN4CCC(NC(N)=NC(=O)c5nc(Cl)c(N)nc5N)CC4)cc3)nn2)CC1 [Example 3.44] | 7.80
11 | NC(=NC(=O)c1nc(Cl)c(N)nc1N)NC1CCN(Cc2ccc(CCn3cc(COCC(CO)(CO)CO)nn3)cc2)CC1 [Example 3.7] | 7.66
12 | NC(=NC(=O)c1nc(Cl)c(N)nc1N)NC1CC2CCC(C1)N2Cc1ccccc1 (single isomer, unassigned) [Example 1.27] | 7.31
13 | NC(=NC(=O)c1nc(Cl)c(N)nc1N)NC1CCN(Cc2ccc(-c3cn(CCOCCOCCOCCNC(=O)c4cc(OCCOCCOCCOCCOC(c5ccccc5)(c5ccccc5)c5ccccc5)cc(OCCOCCOCCOCCOC(c5ccccc5)(c5ccccc5)c5ccccc5)c4)nn3)cc2)CC1 [Example 3.31] | 7.31
14 | NC(=NC(=O)c1nc(Cl)c(N)nc1N)NC1CCN(Cc2ccc(Cn3cc(C(=O)O)ccc3=O)cc2)CC1 [Example 8.12] | 7.41
15 | NC(=NC(=O)c1nc(Cl)c(N)nc1N)NC1CCN(Cc2ccc(OCc3cn(CCOCCOCCOCCNC(=O)c4cc(OCCOCCOCCO)cc(OCCOCCOCCO)c4)nn3)cc2)CC1 [Example 5.8] | 7.28
16 | NC(=NC(=O)c1nc(Cl)c(N)nc1N)NC1CCN(Cc2ccc(CCn3cc(COCCO)nn3)cc2)CC1 [Example 3.2] | 8.00
17 | COc1ccc(C(=O)CN2CCC(NC(N)=NC(=O)c3nc(Cl)c(N)nc3N)CC2)cc1 [Example 1.20] | 7.96
18 | CCOP(=O)(OCC)c1ccc(CN2CCC(NC(N)=NC(=O)c3nc(Cl)c(N)nc3N)CC2)cc1 [Example 1.13] | 8.30
19 | NC(=NC(=O)c1nc(Cl)c(N)nc1N)NC1CCN(Cc2ccc(CCn3cc(COc4cccc(C(=O)NCCOCCO)c4)nn3)cc2)CC1 [Example 3.3] | 7.62
20 | NC(=NC(=O)c1nc(Cl)c(N)nc1N)NC1CCN(Cc2ccc(-c3cn(CCOCCOCCOCCOCCOCCOCCOCCO)nn3)cc2)CC1 [Example 3.29] | 7.92

The remaining lines, values ahead:

Row | pIC50 | Structure (SMILES)
21 | 8.22 | NC(=NC(=O)c1nc(Cl)c(N)nc1N)NC1CCN(Cc2ccc(-n3cc(COC[B-](F)(F)F)nn3)cc2)CC1 [Example 3.14]
22 | 8.15 | COC(=O)COc1ccc(CN2CCC(NC(N)=NC(=O)c3nc(Cl)c(N)nc3N)CC2)cc1OCC(=O)OC [Example 1.53]
23 | 8.40 | COC(=O)Cc1cccc(CN2CCC(NC(N)=NC(=O)c3nc(Cl)c(N)nc3N)CC2)c1 [Example 1.6]
24 | 8.00 | N/C(=N\C(=O)c1nc(Cl)c(N)nc1N)NC1CCN(Cc2ccc(CO)cc2)CC1 [Example 1.2]
25 | 8.52 | NC(N)=NCc1ccc(CN2CCC(N/C(N)=N/C(=O)c3nc(Cl)c(N)nc3N)CC2)cc1 [Example 10.1]
26 | 8.00 | NC(=NC(=O)c1nc(Cl)c(N)nc1N)NC1CCN(Cc2cccc(-c3cn(CCOCCOCCOCCOCCOCCO)nn3)c2)CC1 [Example 5.9]
27 | 8.52 | CC(C)(C)[Si](C)(C)OCCN(CCO[Si](C)(C)C(C)(C)C)C(=O)c1ccc(=O)n(CCc2cn(-c3ccc(CN4CCC(NC(N)=NC(=O)c5nc(Cl)c(N)nc5N)CC4)cc3)nn2)c1 [Example 3.17]
28 | 8.30 | COC(=O)c1ccc(CN2CCC(N/C(N)=N/C(=O)c3nc(Cl)c(N)nc3N)CC2)c(OC)c1 [Example 1.1]
29 | 9.00 | CN(Cc1cn(-c2ccc(CN3CCC(NC(N)=NC(=O)c4nc(Cl)c(N)nc4N)CC3)cc2)nn1)C(=O)CCNCCOCCOCCOCCOC(c1ccccc1)(c1ccccc1)c1ccccc1 [Example 3.20]
30 | 8.15 | COCCOc1ccc(CCc2ccc(CN3CCC(NC(N)=NC(=O)c4nc(Cl)c(N)nc4N)CC3)cc2)nn1 [Example 1.58]
31 | 8.10 | NC(=NC(=O)c1nc(Cl)c(N)nc1N)NC1CCN(Cc2ccc(-n3cc(COCC(CO)(CO)CO)nn3)cc2)CC1 [Example 3.19]
32 | 8.70 | CN(Cc1cn(-c2ccc(CN3CCC(NC(N)=NC(=O)c4nc(Cl)c(N)nc4N)CC3)cc2)nn1)C(=O)CCNCCOCCOCCOCCO [Example 5.3]
33 | 8.52 | COC(=O)c1cccc(CN2CCC(NC(N)=NC(=O)c3nc(Cl)c(N)nc3N)CC2)c1 [Example 1.36]
34 | 8.22 | CN(C)CCNC(=O)Cc1ccc(CN2CCC(NC(N)=NC(=O)c3nc(Cl)c(N)nc3N)CC2)cc1 [Example 2.5]
35 | 8.40 | NC(=NC(=O)c1nc(Cl)c(N)nc1N)NC1CCN(Cc2cccc(C(=O)NCCOCCO)c2)CC1 [Example 1.65]
36 | 8.70 | COC(=O)c1ccc(CN2CCC(N/C(N)=N/C(=O)c3nc(Cl)c(N)nc3N)CC2)cc1 [Example 1.29]
37 | 8.30 | CN(Cc1cn(-c2ccc(CN3CCC(NC(N)=NC(=O)c4nc(Cl)c(N)nc4N)CC3)cc2)nn1)C(=O)CCNC(=O)OC(C)(C)C [Example 3.18]
38 | 8.70 | [N-]=[N+]=NCCOCCOCCOCCn1cc(COc2ccc(CN3CCC(NC(N)=NC(=O)c4nc(Cl)c(N)nc4N)CC3)cc2)nn1 [Example 3.22]
39 | 8.15 | CN(C)Cc1cn(CCc2ccc(CN3CCC(NC(N)=NC(=O)c4nc(Cl)c(N)nc4N)CC3)cc2)nn1 [Example 3.4]
40 | 8.15 | [N-]=[N+]=NCCOCCOCCOCCOc1ccc(CN2CCC(NC(N)=NC(=O)c3nc(Cl)c(N)nc3N)CC2)cc1 [Example 1.18]
